One data set deals with Desmondesmus subspicatus. Briefly: Fresh water algal growth inhibition test (OECD 201). The settings on record: growth rate, 0-3; read-out: Fresh Water algal growth inhibition test with Desmondesmus subspicatus ErC50/0-3. The format is cell-based. From the text:
The study procedures and test methods are based on the recommendations of the following guidelines: Organization for Economic Cooperation and Development (OECD): OECD Guidelines for the Testing of Chemicals, “Freshwater Alga and Cyanobacteria, Growth Inhibition Test”, Procedure 201, adopted 23 Mar. 2006; European Economic Community (EEC): Commission directive 92/69/EEC of 31 Jul. 1992, Methods for the determination of ecotoxicity, C.3., “Algal Inhibition Test”. Data from the aquatic toxicity tests of the isolated and purified C12 mono and disulfonates from Example 11 is shown in Table 3.

For a further data set, the system named is Daphna magna. Description: 48-hour acute toxicity to Daphnia. In kind it is in vivo. From the text: The study procedures and test methods are based on the recommendations of the following guidelines:
Data from the aquatic toxicity tests of the isolated and purified C12 mono and disulfonates from Example 11 is shown in Table 3.

Data set [1] in a line: Solubility evaluation, visual assessment in caustic, calcium chloride and cold water. In kind it is physicochemical. From the text:
The final concentrations are: 0.1 wt % for surfactant, 10 wt % for NaOH.
The final concentrations are: 0.1 wt % for surfactant, 1 M for CaCl2.
, C12, and C14 sulfonate compositions of the invention, as produced in Examples 5, 7, and 8, in 10% sodium hydroxide, 1M calcium chloride, […] 2A1 are shown in Table 2 below, and indicate that these new materials have desirable characteristics.

Bounds are passed on as bounds.

With `CCCCCCCCCCCCOC(CS(=O)(=O)[O-])CS(=O)(=O)[O-].[Na+].[Na+]` [sodium 2-(dodecanyloxy)propane-1,3-disulfonate], the EC50 in the data set with Desmondesmus subspicatus and in the data set with Daphna magna was greater than 100 mg/L throughout.

On to linear alkylbenzene sulfonate [LAS], for which the “Visual assessment, 0.1 wt % surfactant in 1M CaCl2” value in data set [1] (0.1 wt % surfactant, 1 M CaCl2) is on record as “cloudy”. Also, the “Visual assessment, 0.1 wt % surfactant in 10% NaOH” value in data set [1] (0.1 wt % surfactant, 10 wt % NaOH) was “cloudy”. Besides, in data set [1] (1 wt % surfactant, 7° C.), the “Visual assessment, 1 wt % surfactant at 7° C.” value is reported as “cloudy”.

The record behind these values is US8304377B2, “Sulfonate surfactants and methods of preparation and use” (Dow Global Technologies LLC, priority 2009, dated 2012).
